Source: patent US20240052012A1, “PLATELET ALPHA-GRANULES FOR DELIVERY OF MULTIPLE PROTEINS” (CSTS Health Care Inc., priority 2021, published 2024)
One block for each molecule: values may come before it. Ends that are not written are not given here.

Assays:
[1] = tested on: platelets (platelet rich plasma); experiment: FACS analysis of growth factor uptake by platelets; assay type: cell-based; details: pretreatment of platelet rich plasma; FGF, PF4, VEGF, TPO; all but thrombopoietin; FIG. 15B
Text: (Inh=inhibitor added, PF4 receptor, a splice variant of the chemokine receptor CXCR3, known as CXCR3B).

platelet α-granule = experiment: Confocal microscopy, loading of Alexa647-PAL1 conjugated Lucitanib; assay type: cell-based; details: one hour at 37° C.; FIG. 26A
Method: Platelets were co-incubated with Alexa647-labled Lucitanib or with Alexa647-PAL1 conjugated Lucitanib for one hour at 37° C. The platelets were then spun for 10-minutes at 800 g, fixed in 2% paraformaldehyde, and settled onto glass coverslips. After permeabilization, immunofluorescence staining was performed against PF4 in platelets and further stained with Alexa568-secondary antibody. The images were collected through a Nikon-Al laser-scanning microscope equipped with a 60× oil objective. FIG. 26A includes representative images in which immunofluorescence for PF4 was shown in red and Alexa647 was shown in blue. […] FIG. 26B is a graph showing the averaged intensities of Alexa647 channel for >800 ROIs in each group were analyzed using ImageJ and the error bar is the standard deviation of the mean.

isolated platelets = experiment: Platelet loading of Alexa647-labeled peptides, decrease in fluorescence in supernatant; assay type: cell-based; details: for fluorescence of supernatant, complete versus loaded measurements (platelet loading): Alexa647-labeled peptides co-incubated with isolated platelets at 37° C. for one hour, FIG. 1A; for loading of attached cargo into platelets, loaded condition normalized to its complete condition: FIG. 1B
Method: Alexa647-labeled peptides or Alexa647 alone were co-incubated with isolated platelets at 37° C. for one hour to allow for platelet loading. The respective platelet-loading ability was indicated by a decrease in fluorescence in supernatant following the incubation. For controls, identical experiments were performed without the incubation period (noted as “complete” in the figure). Platelets following co-incubation were then centrifuged at 800 g for 10-minutes to separate platelets from supernatant (noted as “loaded” in the figure).
FIG. 1B represents the data in FIG. 1A normalized for each peptide experiment, i.e., normalization of a loaded condition to its complete condition.

[2] = tested on: alpha granules of platelets; experiment: Confocal microscopy, colocalization of Alexa647-labeled peptides with PF4; assay type: cell-based; details: for loading into alpha granules of platelets (Alexa647 intensities per ROI): ROIs selected on PF4 intensity, FIG. 2B
Method: To confirm that the Alexa647-labeled GAG-binding peptides were loaded into alpha granules of platelets, confocal microscopy was used. The platelets that were centrifuged in the experiments of FIG. 1A and FIG. 1B, were fixed in 2% paraformaldehyde and settled onto glass coverslips. After permeabilization, immunofluorescence staining was performed against PF4, which is a marker for alpha granules of platelets. Platelets were stained with Alexa568-secondary antibody. Images were collected through a Nikon-A1 laser-scanning microscope equipped with a 60× oil objective lens.
FIG. 2A are representative images with PF4 staining shown in red (left column) and the Alexa647 signal (from the free Alexa647, Alexa647-labeled GAG-binding peptide, or Alexa647-labeled CFL; middle column) shown in purple. Images were only adjusted for brightness and contrast for display. n>5 images were acquired for each experiment and regions of interest (ROIs) were selected based on PF4 intensity.
The Alexa647 intensities for each ROI were measured using ImageJ and plotted in box and whisker graph using Prism 8.

[3] = Isothermal titration calorimetry (ITC) of GAG-binding peptides; details: for affinity for chondroitin sulfate A (dissociation constants by ITC): 22° C., 5 mM Tris-HCl pH 7.35, 1% DMSO, FIG. 3E, 3F
Method: FIG. 3A is a schematic depicting the isothermal titration calorimetry (ITC) experiments performed in this example. Here, chondroitin sulfate A (CSA) was used to test affinities of illustrative GAG-binding peptides for glycosaminoglycan. 3 mM CSA was loaded into a syringe and CSA was titrated into the sample cell withholding a 0.25 mM solution of GAG-binding peptide or a charge-free ligand (CFL), which served as a negative control. Temperature was set at 22° C., the buffer was 5 mM Tris-HCl (pH 7.35), and 1% DMSO.
FIG. 3B to FIG. 3D show graphical representations of ITC dissociation kinetics for CSA titrated into cells withholding PAL1 (FIG. 3B), PAL2 (FIG. 3C), and CFL (FIG. 3D).
The data obtained during the experiments of FIG. 3B and FIG. 3C were used to determine dissociation constants for the CSA and GAG-binding peptide interactions; these were determined through titration curve fitting using sequential binding model.
(§1) Additionally, the binding affinities for the two illustrative GAG-binding peptides, PAL1 and PAL2, to Heparan Sulfate (HS) and Chondroitin Sulfate (CSA) was determined using affinity chromatography. […] The dissociation constants were measured using ITC, the higher it is, the looser the binding is. […] The binding was measured by the elution volume on a Hi-Trap Heparin column attached to a FPLC system. The later the peak occurs, the tighter the binding is. In FIG. 4A, the peptide amino acid sequences including the control peptide (CFL) and the two PALs (PAL1 and PAL2) are shown.

[4] = tested on: alpha-granule subsets of platelets; experiment: Confocal microscopy, subcellular localization of Alexa647-labelled PAL1 and PAL2 against VEGF and PF4; assay type: cell-based; details: Alexa647-labelled peptides, FIG. 24; for loading into alpha-granule subsets: VEGF and PF4 markers; for preferred colocalization with alpha-granule subset marker: VEGF/PAL and PF4/PAL merged
Method: FIG. 24 are immunofluorescent images showing that PAL1 and PAL2 have different subcellular localizations, i.e., have a preference for distinct alpha-granules. Using VEGF as the marker of one alpha-granule set (green) and PF4 as the marker of the second alpha-granule set (red), the subcellular localization of Alexa647-labelled PAL1 and PAL2 (blue) were recorded on Nikon-Al confocal microscope.
The images FIG. 24 were acquired using Nikon-A1 confocal microscope equipped with a 60× oil immersed objective. PAL1 and PAL2 partially colocalize with both subsets of the alpha-granules as indicated by the cyan and purple pixels in the merged images. To quantify the difference between PAL1 and PAL2, the fractionation of loaded platelets were performed

[5] = tested on: murine hemangioendothelioma cells (EOMA); experiment: Sequestration of bFGF by GAGs on EOMA cells; assay type: cell-based; details: monolayer culture, standard or tumor conditioned media; FIG. 20
Text: FIG. 20 is a graph showing sequestration of growth factors by glycosaminoglycans (GAGs) on the surface of murine hemangioendothelioma cells (EOMA). Here, the cells growing in monolayer tissue culture conditions either under standard media conditions or in surrogate tumor environment using tumor conditioned media, sequester bFGF onto the GAGS on platelets and endothelial cells, and thus remove it from the supernatant. […] Values represent means and SE of 5 wells.

EOMA cells and platelets = experiment: Immunofluorescence, aggregation of platelet PF4 on EOMA cells; assay type: cell-based, murine; details: FIG. 22
Method: Platelet factor 4 (PF4) has one of the highest affinities for HS occurring in nature and can occupy GAG sites and displace other HS binding growth factors. As such, PF4 acts as an inhibitor of tumor growth. FIG. 22 are immunofluorescent images showing that platelets form a provisional matrix that can exchange proteins with endothelial cells upon tumor activation. Murine hemangioendothelioma cells (EOMA) cells were grown in standard media (DMEM+10% FBS), and normal platelets were added. Under normal conditions (top row), PF4 (the main content of platelets α-granules; green and left column) is seen at the periphery (i.e., along the membrane) of the EOMA cells as the platelets aggregate along the cell membrane. Heparan sulphate (red, second from left column) is distributed throughout the membranous surface of the endothelial cell, and DAPI (blue, second from right column) is the nuclear counterstain. In absence of tumor conditioned media, thrombin or other activators of endothelial cell, there is no clumping and aggregation of the platelets. […] However, upon incubation of EOMA cells and platelets in presence of tumor conditioned media (second row), the expression of HS is increased, and a thick platelet provisional matrix is formed as shown by the aggregation of PF4 on the HS rich surface EOMA cell; this platelet provisional matrix is used by EOMA cells for growth. […]

[6] = Affinity chromatography of peptides, Hi-Trap Heparin column on FPLC; assay type: binding; details: PAL1 versus PAL2; FIG. 4C
Method: as §1

Molecule: Cc1cc(N)c2cc(NC(=O)Nc3ccc4nc(C)cc(N)c4c3)ccc2n1 [surfen]
growth factor uptake by platelets [1]: significantly inhibits growth factor uptake by platelets

Molecule: Alexa647-labelled PAL1 conjugated-Lucitanib: Lucitanib conjugated with Alexa647-labelled PAL1 (SEQ ID NO: 1) (ERRIWFPYRRF; also: Alexa647 label, conjugated to Lucitanib, sites not given here)
colocalization with PF4 / loading into α-granules (platelet α-granule): colocalization

Molecule: EGGIWFPYGGF [CFL, reference compound]
fluorescence of supernatant, complete versus loaded measurements (platelet loading) (isolated platelets): did not change
loading of attached cargo into platelets, loaded condition normalized to its complete condition (isolated platelets): unable to direct loading of the cargo into platelets
loading into alpha granules of platelets (Alexa647 intensities per ROI) [2]: do not load into platelets
colocalization of alpha granule marker PF4 and Alexa647 signal ([2]; merged images, FIG. 2A): Co-localization was not observed

affinity for chondroitin sulfate A (dissociation constants by ITC) [3]: high affinity
relative binding to CSA (dissociation constants by ITC) ([3]; PAL1 versus PAL2, FIG. 4B): bind CSA tighter than PAL2
Molecule: ERRIWFPYRRF [PAL1]
fluorescence of supernatant, complete versus loaded measurements (platelet loading) (isolated platelets): decrease in absorbance
loading of attached cargo into platelets, loaded condition normalized to its complete condition (isolated platelets): facilitates loading of an attached cargo into platelets
loading into alpha granules of platelets (Alexa647 intensities per ROI) [2]: facilitates loading of an attached cargo into alpha granules of platelets
loading into alpha-granule subsets [4]: loaded to both the subsets of alpha-granules
preferred colocalization with alpha-granule subset marker [4]: colocalized more to the VEGF subset

Molecule: Heparin
sequestration of bFGF from the supernatant onto GAGs [5]: further enhance the phenomenon
aggregation of platelet PF4 on the HS rich surface of EOMA cells (EOMA cells and platelets): inhibited

affinity for chondroitin sulfate A (dissociation constants by ITC) [3]: high affinity
relative binding to HS (elution volume on Hi-Trap Heparin column) [6]: binds HS tighter than PAL1
Molecule: RFRWPYRIREF [PAL2]
fluorescence of supernatant, complete versus loaded measurements (platelet loading) (isolated platelets): decrease in absorbance
loading of attached cargo into platelets, loaded condition normalized to its complete condition (isolated platelets): facilitates loading of an attached cargo into platelets
loading into alpha granules of platelets (Alexa647 intensities per ROI) [2]: facilitates loading of an attached cargo into alpha granules of platelets
loading into alpha-granule subsets [4]: loaded to both the subsets of alpha-granules
preferred colocalization with alpha-granule subset marker [4]: colocalized more to the PF4 channel

Molecule: thrombin
sequestration of bFGF from the supernatant onto GAGs [5]: released from the GAGs into the supernatant
aggregation of platelet PF4 on the HS rich surface of EOMA cells (EOMA cells and platelets): reproduced
